From patent US10774064B2 (Cadent Therapeutics, Inc., priority 2016, dated 2020)

Biological target: T1, small-conductance Ca2+-activated K+ channels (SK channels, subtype 2) (Homo sapiens, UniProt Q9H2S1)
T1 construct: expressed in transfected cells; host or cells: HEK293
Test: whole-cell patch-clamp of ionic current through SK2 channels in HEK293 cells (SC100)
Assay type: cell-based
Settings: concentration that increases the basal current by 100%; HEK293 cells expressing SK2 channels
In short: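 SC100, the concentration doubling basal current (a 100% increase), was taken from SK2 currents recorded by whole-cell patch-clamp in SK2-expressing HEK293 cells.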

Row | SMILES | SC100
1 | Cc1cc(NC2C[C@@H]3[C@H](C2)C3(F)F)nc(-n2ccc(C)n2)n1 (stereo partly drawn) [Compound 245, N-((1R,5S)-6,6-difluorobicyclo[3.1.0]hexan-3-yl)-6-methyl-2-(3-methyl-1H-pyrazol-1-yl)pyrimidin-4-amine] | + (+ means >1 uM)
2 | Cc1cc(C)n(-c2nc3c(c(NC4CCC(F)(F)CC4)n2)CCN(CCO)C3)n1 [Compound 118, 2-(4-((4,4-difluorocyclohexyl)amino)-2-(3,5-dimethyl-1H-pyrazol-1-yl)-5,8-dihydropyrido[3,4-d]pyrimidin-7(6H)-yl)ethan-1-ol] | + (+ means >1 uM)
3 | CCN(c1cc(C)nc(-n2nc(C)cc2C)n1)C1CCC(F)(F)CC1 [Compound 161, N-(4,4-difluorocyclohexyl)-2-(3,5-dimethyl-1H-pyrazol-1-yl)-N-ethyl-6-methylpyrimidin-4-amine] | + (+ means >1 uM)
4 | Cc1cc(C)n(-c2nc(NC3CCC(F)(F)C3)cc(C3CC3)n2)n1 (stereo not drawn) [Compound 217, 6-cyclopropyl-N-(3,3-difluorocyclopentyl)-2-(3,5-dimethyl-1H-pyrazol-1-yl)pyrimidin-4-amine] | + (+ means >1 uM)
5 | Cc1cc(C)n(-c2cccc(N(C)C3CCC(F)(F)CC3)n2)n1 [Compound 166, N-(4,4-difluorocyclohexyl)-6-(3,5-dimethyl-1H-pyrazol-1-yl)-N-methylpyridin-2-amine] | + (+ means >1 uM)

Results, then the compound that gave them:

Row | SC100 | SMILES
6 | ++ (++ means 200 nM-1000 nM) | FCc1ccn(-c2cc(OC3COC3)cc(NC3CCC(F)(F)CC3)n2)n1 [Compound 302, N-(4,4-difluorocyclohexyl)-6-(3-(fluoromethyl)-1H-pyrazol-1-yl)-4-(oxetan-3-yloxy)pyridin-2-amine]
7 | ++ (++ means 200 nM-1000 nM) | CC(C)C(=O)NCc1cc(NC2CCC(F)(F)CC2)nc(-n2ccc(CF)n2)c1 [Compound 348, N-((2-((4,4-difluorocyclohexyl)amino)-6-(3-(fluoromethyl)-1H-pyrazol-1-yl)pyridin-4-yl)methyl)isobutyramide]
8 | ++ (++ means 200 nM-1000 nM) | Cc1cc(NC2CCC(F)(F)CC2)nc(-n2ccc(C3CC3)n2)n1 [Compound 203, 2-(3-cyclopropyl-1H-pyrazol-1-yl)-N-(4,4-difluorocyclohexyl)-6-methylpyrimidin-4-amine]
9 | + (+ means >1 uM) | Cc1cc(C)n(-c2nc(NC3CCC(F)(F)CC3)cc(C(N)=O)n2)n1 [Compound 131, 6-((4,4-difluorocyclohexyl)amino)-2-(3,5-dimethyl-1H-pyrazol-1-yl)pyrimidine-4-carboxamide]
10 | + (+ means >1 uM) | Cc1cc(C)n(-c2nc(CF)cc(NC3CCC(F)(F)CC3)n2)n1 [Compound 165, N-(4,4-difluorocyclohexyl)-2-(3,5-dimethyl-1H-pyrazol-1-yl)-6-(fluoromethyl)pyrimidin-4-amine]

Same assay, conditions: whole-cell patch-clamp, HEK293 cells expressing SK2 channels; concentration that increases the basal current by 100%

Row | SMILES | SC100 (μM)
11 | Cc1csc(-c2nc(NC3CCC(F)(F)CC3)cc(C(C)O)n2)n1 (stereo not drawn) [IN10880-035-P1, 1-(6-((4,4-difluorocyclohexyl)amino)-2-(4-methylthiazol-2-yl)pyrimidin-4-yl) ethan-1-ol] | ++ (++ means 200 nM-1000 nM)
12 | Cc1csc(-c2nc(NC3CCCCC3(F)F)cc(N3CCOCC3)n2)n1 (stereo not drawn) [IN11140-066-P1] | + (+ means >1 uM)
13 | Cc1csc(-c2nc(NC3CCC(F)(F)CC3)cc(OCc3nnc(C)o3)n2)n1 [NSSy5651] | ++ (++ means 200 nM-1000 nM)
14 | Cc1csc(-c2cc(N3CCOCC3)cc(OC3CCC(F)(F)CC3)n2)n1 [NSSy6285] | + (+ means >1 uM)
15 | Cc1cc(NC2CCC(F)(F)CC2)nc(CO)n1 [IN11273-001-P1, (4-((4,4-difluorocyclohexyl)amino)-6-methylpyrimidin-2-yl) methanol] | + (+ means >1 uM)
16 | COc1cccc2c(NC3CCC(F)(F)CC3)nc(-c3nc(C)cs3)nc12 [IN11030-081-P1, N-(4,4-difluorocyclohexyl)-8-methoxy-2-(4-methylthiazol-2-yl) quinazolin-4-amine] | ++ (++ means 200 nM-1000 nM)
17 | Cc1csc(-c2nc(NC3(C)CCCCC3)cc(N3CCOCC3)n2)n1 [IN10973-099-P1] | + (+ means >1 uM)
18 | Cc1csc(-c2nc(NC3CCC(F)(F)CC3)cc(N3CCOC(C)(C)C3)n2)n1 [IN10864-043-P1] | +++ (+++ means <200 nM)
19 | Cc1csc(-c2nc(NC3CCC(F)(F)CC3)cc(OCC#N)n2)n1 [IN11196-007-P1, 2-((6-((4,4-difluorocyclohexyl)amino)-2-(4-methylthiazol-2-yl)pyrimidin-4-yl)oxy)acetonitrile] | ++ (++ means 200 nM-1000 nM)
20 | Cc1ccn(-c2nc(NC3CCC(F)(F)CC3)cc(OC3CC(F)C3)n2)n1 (stereo not drawn) [NSSy5647, N-(4,4-difluorocyclohexyl)-6-(3-fluorocyclobutoxy)-2-(3-methyl-1H-pyrazol-1-yl)pyrimidin-4-amine] | ++ (++ means 200 nM-1000 nM)
21 | Cc1cc(NC2CCC(F)(F)CC2)nc(-n2cc(-n3cc(F)c(C)n3)c(C)n2)n1 [IN11216-072-P1] | + (+ means >1 uM)
22 | Cc1csc(-c2nc(NC3CCC(F)CC3)cc(N3CCOCC3)n2)n1 (stereo not drawn) [NSSy5699, N-(4-fluorocyclohexyl)-2-(4-methylthiazol-2-yl)-6-morpholinopyrimidin-4-amine] | + (+ means >1 uM)
23 | Cc1cc(C)n(-c2nc(NC3CCCC(C(F)(F)F)C3)cc(C(C)O)n2)n1 (stereo not drawn) [IN10973-005-P1] | + (+ means >1 uM)
24 | Cc1cc(C)n(-c2nc(NC3CCCC(F)(F)C3)cc(N3CCOCC3)n2)n1 (stereo not drawn) [NSSy6265] | + (+ means >1 uM)
25 | Cc1ccn(-c2nc(C(C)O)cc(N3CCCCCC3)n2)n1 (stereo not drawn) [IN10881-058-P1] | + (+ means >1 uM)
26 | Cc1csc(-c2nc(NC3CCC(F)(F)CC3)cc(OC3CC(C)(O)C3)n2)n1 (stereo not drawn) [NSSy5740] | ++ (++ means 200 nM-1000 nM)

Continued, values first:

Row | SC100 (μM) | SMILES
27 | ++ (++ means 200 nM-1000 nM) | Cc1ccn(-c2cc(C(O)Cc3cnnn3C)cc(NC3CCC(F)(F)CC3)n2)n1 (stereo not drawn) [NSSy7065, 1-(2-((4,4-difluorocyclohexyl)amino)-6-(3-methyl-1H-pyrazol-1-yl)pyridin-4-yl)-2-(1-methyl-1H-1,2,3-triazol-5-yl) ethan-1-ol]
28 | + (+ means >1 uM) | Cc1ccn(-c2nc(NC3CCC(F)(F)CC3)cc(OCCN(C)C)n2)n1 [IN10966-095-P1]
29 | ++ (++ means 200 nM-1000 nM) | CC(=O)N1CCCC(OCc2cc(NC3CCC(F)(F)CC3)nc(-n3ccc(C)n3)c2)C1 (stereo not drawn) [IN11067-003-P1]
30 | + (+ means >1 uM) | CC(=O)c1ccn(-c2nc(NC3CCC(F)(F)CC3)cc(N3CCOCC3)n2)n1 [IN11243-031-P1]
31 | + (+ means >1 uM) | CC(=O)N1CCN(c2cc(-c3cccc(C)n3)nc(NC3CCC(F)(F)CC3)n2)CC1 [NSSy6989, 1-(4-(2-((4,4-difluorocyclohexyl)amino)-6-(6-methylpyridin-2-yl)pyrimidin-4-yl)piperazin-1-yl)ethan-1-one]
32 | +++ (+++ means <200 nM) | Cc1ccn(-c2cc(C(O)Cc3ccc(C#N)cn3)cc(NC3CCC(F)(F)CC3)n2)n1 (stereo not drawn) [NSSy6469, 6-(2-(2-((4,4-difluorocyclohexyl)amino)-6-(3-methyl-1H-pyrazol-1-yl)pyridin-4-yl)-2-hydroxyethyl)nicotinonitrile]
33 | ++ (++ means 200 nM-1000 nM) | CCC1CN(c2cc(NC3CCC(F)(F)CC3)nc(-c3nc(C)cs3)n2)CCO1 (stereo not drawn) [IN10880-018-P1]
